Columns and labels:
[1] = tested on: SARS-COV-2; experiment: Survival and body weight of SARS-COV-2-infected Balb/c mice; assay type: in vivo; details: preventive administration of inosine
[2] = tested on: SARS-COV-2; experiment: Lung tissue pathology by H&E staining in SARS-COV-2-infected mice; assay type: in vivo, mouse; details: oral inosine administration group vs SARS-COV-2 infection group
Description: The effect of inosine on pathological changes of lung tissue was observed by hematoxylin and eosin (H&E) staining.

[3] = tested on: IL-6; experiment: Serum cytokine IL-6 level by ELISA in SARS-COV-2-infected mice; assay type: in vivo, mouse; details: inosine group
Experimental: In the process of cytokine storm (CRS), IL-6 is one of the most critical cytokines, and severity of the CRS is closely related to the increase in IL-6. In the cytokine storm induced by SARS-COV-2, IL-6 plays an important role. In order to determine whether the inosine could inhibit the secretion of IL-6, the level of cytokine IL-6 in mouse serum was determined by ELISA.

**Q.** What does the source list for `OC[C@H]1O[C@@H](n2cnc3c(O)ncnc32)[C@H](O)[C@@H]1O` [inosine]?
**A.** day after infection on which body weights regained gradually [1]: 8 days; weight loss ([1]; vs model group): lower weight loss; survival time of the Balb/c mice ([1]; vs model group (died on days 4-7)): significantly prolonged; inflammatory infiltration of lung tissue [2]: significantly improved; pathological changes of lung tissue (H&E staining) [2]: the lung tissues were structurally intact, alveolar space was clear, no congestion was noted in the pulmonary alveolar wall; level of cytokine IL-6 in mouse serum [3]: could inhibit the high expression of SARS-COV-2 induced IL-6

Source: patent publication US20240299436A1, “Use of Inosine in Preparing Drug For Treatment of Corona Virus Disease 2019” (PLA ACADEMY OF MILITARY MEDICAL SCIENCES, priority 2021, published 2024)
